Source: patent publication US20230098332A1, “HETEROCYCLIC DERIVATIVES AS TRMP8 ANTAGONISTS” (Givaudan SA, priority 2020, published 2023)
Where a name gives a salt, the structure may show the parent alone.

Assays:
[1] = test system: trained group of panelists; assay: Sensory studies in aqueous solution (trained panelists, cooling in the mouth); assay type: in vivo, human; details: 40 ppm in aqueous solution, 20 mL swilled in the mouth for 60 seconds; for Cooling after 1 hour / Max. cooling: averaged panel score 0-10
Protocol: The compounds as listed below in Table 2 were dissolved at a concentration of 1 wt-% in propylene glycol. These solutions were then dispensed in appropriate quantities into deionized water containing 0.5 wt-% Poloxamer 407 (which is a hydrophilic non-ionic surfactant, e.g., commercially available from SigmaAldrich) and 0.25 wt-% Cremaphor® RH40 (obtained from BASF) as solubilizer, to obtain the desired final concentration of 40 ppm (parts per million) of the respective compound.
A trained group of panelists evaluated the aqueous solutions containing test compound by swilling 20 mL of the solution in the mouth for 60 seconds, followed by spitting, without rinsing the mouth afterwards for the duration of the evaluation. Panelists evaluated and recorded the cooling performance as well as other sensorial and organoleptic attributes at different timepoints over a period of two hours. Cooling performance was rated on a scale from 0 to 10 with 0 being no effect and 10 being freezing. Scores were averaged for all panelists and the cooling intensity qualified as “N” for “none” (score of 0), “L” for “low” (score above 0, up to 1), “M” for “medium” (score above 1, up to 4), “S” for “strong” (score above 4, up to 8) and “E” for “extreme” (score above 8), which are provided in Table 2.

[2] = test system: trained group of panelists; assay: Sensory studies in model dentifrice (trained panelists, cooling in the mouth); assay type: in vivo, human; details: 100 ppm in model unflavored dentifrice, brushing with 1 g for 60 seconds; for Cooling after 1 hour / Max. cooling: averaged panel score 0-10
Protocol: The compounds listed in Table 3 were dissolved at a concentration of 1 wt-% in propylene glycol. These solutions were then dispersed in appropriate quantities to obtain the desired final concentration of 100 ppm (parts per million) of the test compound into a model, unflavored dentifrice, the formula of which is given below (ingredients obtained from the suppliers respectively indicated in parenthesis).
A trained group of panelists evaluated the dentifrice containing a compound of formula (I), by brushing their teeth with 1 g of the dentifrice using a toothbrush for 60 seconds, followed by spitting, without rinsing the mouth afterwards for the duration of the evaluation. Panelists evaluated and recorded the cooling performance as well as other sensorial and organoleptic attributes at different timepoints over a period of two hours. Cooling performance was rated on a scale from 0 to 10 with 0 being no effect and 10 being freezing. Scores were averaged for all panelists and the cooling intensity qualified as “N” for “none” (score of 0), “L” for “low” (score above 0, up to 1), “M” for “medium” (score above 1, up to 4), “S” for “strong” (score above 4, up to 8) and “E” for “extreme” (score above 8), which are summarized below in Table 3.

hTRPM8 = molecular target: T1, hTRPM8 (Homo sapiens, UniProt Q7Z2W7); assay: Assay on TRPM8 modulators: calcium imaging (Fluo-4, Flexstation) in HEK293 cell line stably expressing hTRPM8; assay type: cell-based; details: TRPM8 agonist activity, calcium influx, HEK293 stably expressing hTRPM8, sigmoidal dose-response fit
T1 construct: expressed in transfected cells
T1 sequence (Q7Z2W7 whole entry): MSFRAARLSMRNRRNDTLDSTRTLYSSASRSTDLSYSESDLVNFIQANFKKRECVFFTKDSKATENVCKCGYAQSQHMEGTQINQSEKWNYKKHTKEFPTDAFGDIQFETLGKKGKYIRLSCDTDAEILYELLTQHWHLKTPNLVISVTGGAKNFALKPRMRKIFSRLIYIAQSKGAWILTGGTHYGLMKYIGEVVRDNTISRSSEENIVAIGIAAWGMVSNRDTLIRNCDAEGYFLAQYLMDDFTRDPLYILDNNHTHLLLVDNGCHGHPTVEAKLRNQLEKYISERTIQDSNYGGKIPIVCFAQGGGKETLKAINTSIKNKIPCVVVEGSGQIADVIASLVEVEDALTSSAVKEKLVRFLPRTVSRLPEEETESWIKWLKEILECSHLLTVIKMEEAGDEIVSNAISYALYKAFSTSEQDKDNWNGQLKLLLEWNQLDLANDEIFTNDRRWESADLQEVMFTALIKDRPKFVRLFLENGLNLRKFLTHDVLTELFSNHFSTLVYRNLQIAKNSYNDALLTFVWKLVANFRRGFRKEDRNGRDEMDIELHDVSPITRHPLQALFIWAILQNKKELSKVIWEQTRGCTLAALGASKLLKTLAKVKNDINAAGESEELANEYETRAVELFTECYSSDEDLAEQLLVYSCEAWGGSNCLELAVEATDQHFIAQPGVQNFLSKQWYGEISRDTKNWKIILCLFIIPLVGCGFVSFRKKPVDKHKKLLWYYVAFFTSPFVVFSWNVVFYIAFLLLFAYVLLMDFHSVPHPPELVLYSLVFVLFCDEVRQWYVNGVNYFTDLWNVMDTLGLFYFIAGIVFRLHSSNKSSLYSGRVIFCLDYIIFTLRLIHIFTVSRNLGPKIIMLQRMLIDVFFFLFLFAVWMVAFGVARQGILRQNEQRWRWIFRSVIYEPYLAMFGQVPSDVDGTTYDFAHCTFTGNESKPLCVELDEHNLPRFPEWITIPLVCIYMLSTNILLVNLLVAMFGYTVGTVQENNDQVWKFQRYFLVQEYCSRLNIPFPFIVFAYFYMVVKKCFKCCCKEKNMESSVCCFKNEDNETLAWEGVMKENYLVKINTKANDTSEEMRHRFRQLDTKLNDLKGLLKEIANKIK
Protocol: A HEK293 cell line stably expressing hTRPM8 was generated according to Klein et al., (Chem. Senses 36: 649-658, 2011) and receptor activation was monitored by calcium imaging in a Flexstation. For Ca-imaging assays of TRPM8 channel activation, cells were seeded on day 0 at a density of 12000 cells per well in Dulbecco's modified Eagle medium (DMEM) containing 9% foetal bovine serum in black, clear bottom 96-well plates that had been coated with 0.001% polyethyleneimine (molecular weight=60 000, Acros Organics). On day 2, agonists were evaluated via calcium imaging using Fluo-4. Briefly, growth medium was discarded, and the cells were incubated in the dark for 1 h at 37° C. in 50 μL loading buffer consisting of 2.7 μM Fluo-4 AM (Invitrogen) and […] probenecid (Sigma-Aldrich) in DMEM (without serum). After incubation, the plates were washed five times with 100 μL of assay buffer (in mM: 130 NaCl, 5 KCl, 10 HEPES, 2 CaCl2, and 10 glucose, pH7.4.) and further incubated in the dark at room temperature for 30 min. The cells were then washed five times with 100 μL assay buffer and then calcium influx to serial dilutions of inventive compounds were measured in a Flexstation 3 (Molecular Devices). Receptor activation was initiated following addition of 20 μl of a 10-fold concentrated ligand stock solution, which is also prepared in assay buffer. Fluorescence was continuously monitored for 15 seconds prior to ligand addition and for 105 seconds after ligand addition, for a total of 120 seconds. Maximal receptor activation in relation to solvent control and relative to 31.6 μM menthol is determined. Data from serial dilutions were processed with a KNIME workflow to fit a sigmoidal dose-response curve and to extrapolate EC50 values.

| SMILES | EC50 (hTRPM8) [nM] | Time of max. cooling [1] [min] | Cooling after 1 hour [1] | Max. cooling [1] | other results |
| --- | --- | --- | --- | --- | --- |
| Cc1cc(C)c(OCCN2CCN(C)CC2)c(Cc2ccccc2)c1.Cl.Cl [compound 71, 1-(2-(2-benzyl-4,6-dimethylphenoxy)ethyl)-4-methylpiperazine dihydrochloride] | – | 20 | M (“M” for “medium” (score above 1, up to 4)) | S (“S” for “strong” (score above 4, up to 8)) | Time of max. cooling [2]: 10 min; Cooling after 1 hour [2]: L (“L” for “low” (score above 0, up to 1)); Max. cooling [2]: M (“M” for “medium” (score above 1, up to 4)) |
| Cc1ccc(OCCN2CCN(C)CC2)c(Cc2ccccc2)c1 [compound 77, 1-(2-(2-benzyl-4-methylphenoxy)ethyl)-4-methylpiperazine] | 300 to 1000 | 10 | M (“M” for “medium” (score above 1, up to 4)) | M (“M” for “medium” (score above 1, up to 4)) | – |
| Cc1ccc(OCCN2CCN(C)CC2)c(Cc2ccccc2)c1.Cl [compound 85, 1-(2-(2-benzyl-4-methylphenoxy)ethyl)-4-methylpiperazine hydrochloride] | – | 20 | M (“M” for “medium” (score above 1, up to 4)) | S (“S” for “strong” (score above 4, up to 8)) | Time of max. cooling [2]: 20 min; Cooling after 1 hour [2]: L (“L” for “low” (score above 0, up to 1)); Max. cooling [2]: L (“L” for “low” (score above 0, up to 1)) |
| Cc1ccc(OC(C)CN2CCN(C)CC2)c(Cc2ccccc2)c1 (stereo not drawn) [compound 90, 1-(2-(2-benzyl-4-methylphenoxy)propyl)-4-methylpiperazine] | 300 to 1000 | 10 | M (“M” for “medium” (score above 1, up to 4)) | M (“M” for “medium” (score above 1, up to 4)) | – |
| Cc1ccc(CCCN2CCN(C)CC2)c(Cc2ccccc2)c1 [compound 100, 1-(3-(2-benzyl-4-methylphenyl)propyl)-4-methylpiperazine] | 300 to 1000 | 10 | M (“M” for “medium” (score above 1, up to 4)) | M (“M” for “medium” (score above 1, up to 4)) | – |
| Cc1cc(C)c(OCCC2CCOCC2)c(Cc2ccccc2C#N)c1 [compound 119, 2-(3,5-dimethyl-2-(2-(tetrahydro-2H-pyran-4-yl)ethoxy)benzyl)benzonitrile] | 50 to 300 | 10 | L (“L” for “low” (score above 0, up to 1)) | M (“M” for “medium” (score above 1, up to 4)) | – |
| Cc1ccc(OCCN2CCOCC2)c(Cc2c(F)cccc2F)c1 [compound 151, 4-(2-(2-(2,6-difluorobenzyl)-4-methylphenoxy)ethyl)morpholine] | 50 to 300 | – | – | – | – |
| Cc1cc(C)c(OCCN2CCOCC2)cc1Cc1c(F)c(F)c(F)c(F)c1F [compound 155, 4-(2-(2,4-dimethyl-5-((perfluorophenyl)methyl)phenoxy)ethyl)morpholine] | 1000 to 35000 | – | – | – | – |
| Cc1ccc(OCCN2CC(C)N(C)C(C)C2)c(Cc2ccccc2)c1 (stereo not drawn) [compound 158, 4-(2-(2-benzyl-4-methylphenoxy)ethyl)-1,2,6-trimethylpiperazine] | 300 to 1000 | 30 | M (“M” for “medium” (score above 1, up to 4)) | M (“M” for “medium” (score above 1, up to 4)) | – |
| Cc1ccc(OCCN2CCOCC2)c(Cc2ccccc2)c1.Cl [compound 159, 4-(2-(2-benzyl-4-methylphenoxy)ethyl)morpholine hydrochloride] | 1000 to 35000 | 5 | L (“L” for “low” (score above 0, up to 1)) | M (“M” for “medium” (score above 1, up to 4)) | – |
| Cc1ccc(OCCN2CC[S+]([O-])CC2)c(Cc2ccccc2)c1 [compound 160, 4-(2-(2-benzyl-4-methylphenoxy)ethyl)thiomorpholine 1-oxide] | 1000 to 35000 | – | – | – | – |
| Cc1cc(C)c(CCCN2CCOCC2)c(Oc2ccccc2F)c1 [compound 162, 4-(3-(2-(2-fluorophenoxy)-4,6-dimethylphenyl)propyl)morpholine] | < 50 | – | – | – | – |
| Cc1ccc(O)c(Cc2cc(C)ccc2OCCN2CCN(C)CC2)c1 [compound 163, 4-methyl-2-(5-methyl-2-(2-(4-methylpiperazin-1-yl)ethoxy)benzyl)phenol] | 1000 to 35000 | – | – | – | – |
| CCOC(=O)c1ccc(Cc2cc(C)cc(C)c2OCCN2CCN(C)CC2)cc1 [compound 164, ethyl 4-(3,5-dimethyl-2-(2-(4-methylpiperazin-1-yl)ethoxy)benzyl)benzoate dihydrochloride] | 1000 to 35000 | – | – | – | – |
| COC(=O)c1ccc(OCCN2CCN(C)CC2)c(Cc2ccccc2)c1 [compound 165, methyl 3-benzyl-4-(2-(4-methylpiperazin-1-yl)ethoxy)benzoate] | 1000 to 35000 | – | – | – | – |

Further lines, with some results ahead:

| EC50 (hTRPM8) [nM] | SMILES | Time of max. cooling [1] [min] | Cooling after 1 hour [1] | Max. cooling [1] | other results |
| --- | --- | --- | --- | --- | --- |
| 300 to 1000 | Cc1cc(C)c(OCCN2CCOCC2)c(C(C)c2ccccc2F)c1 (stereo not drawn) [compound 144, 4-(2-(2-(1-(2-fluorophenyl)ethyl)-4,6-dimethylphenoxy)ethyl)morpholine] | – | – | – | – |
| 300 to 1000 | C=C(c1ccccc1F)c1cc(C)cc(C)c1OCCN1CCOCC1 [compound 145, 4-(2-(2-(1-(2-fluorophenyl)vinyl)-4,6-dimethylphenoxy)ethyl)morpholine] | – | – | – | – |
| 300 to 1000 | Cc1cc(C)c(OCCN2CCOCC2)c(Cc2ccc(F)cc2F)c1 [compound 146, 4-(2-(2-(2,4-difluorobenzyl)-4,6-dimethylphenoxy)ethyl)morpholine] | – | – | – | – |
| 50 to 300 | Cc1cc(C)c(OCCN2CCOCC2)c(Cc2cc(F)ccc2F)c1 [compound 147, 4-(2-(2-(2,5-difluorobenzyl)-4,6-dimethylphenoxy)ethyl)morpholine] | – | – | – | – |
| 300 to 1000 | Cc1cc(C)c(OCCN2CCOCC2)c(Cc2c(Cl)cccc2Cl)c1 [compound 148, 4-(2-(2-(2,6-dichlorobenzyl)-4,6-dimethylphenoxy)ethyl)morpholine] | – | – | – | – |
| 300 to 1000 | Cc1cc(C)c(OC(C)CN2CCOCC2)c(Cc2c(F)cccc2F)c1 (stereo not drawn) [compound 150, 4-(2-(2-(2,6-difluorobenzyl)-4,6-dimethylphenoxy)propyl)morpholine] | – | – | – | – |
| 50 to 300 | Cc1cc(C)c(OCCN2CCOCC2)c(Cc2ccccc2Cl)c1 [compound 152, 4-(2-(2-(2-chlorobenzyl)-4,6-dimethylphenoxy)ethyl)morpholine] | – | – | – | – |
| 300 to 1000 | Cc1cc(C)c(OCCN2CCOCC2)c(Cc2cc(F)cc(F)c2)c1 [compound 154, 4-(2-(2-(3,5-difluorobenzyl)-4,6-dimethylphenoxy)ethyl)morpholine] | – | – | – | – |
| 1000 to 35000 | Cc1cc(C)c(OCCN2CCOCC2)c(Cc2cc(F)c(F)cc2F)c1 [compound 156, 4-(2-(2,4-dimethyl-6-(2,4,5-trifluorobenzyl)phenoxy)ethyl)morpholine] | – | – | – | – |
| 300 to 1000 | Cc1cc(C)c(OCCN2CCOCC2)c(Cc2ccccc2[N+](=O)[O-])c1 [compound 157, 4-(2-(2,4-dimethyl-6-(2-nitrobenzyl)phenoxy)ethyl)morpholine] | – | – | – | – |
| 50 to 300 | CCc1cc(C)cc(Cc2ccccc2F)c1OCCN1CCOCC1 [compound 161, 4-(2-(2-ethyl-6-(2-fluorobenzyl)-4-methylphenoxy)ethyl)morpholine] | – | – | – | – |
